Source: patent US20040171594A1, “Use of bis-acid(5-androsten-17-one-3beta-hydroxyl)diester for manufacture pharmaceuticals” (priority 2001, published 2004)
Marks after values point to notes of the source that are not given here.

Tests used:
[1] = system: arrhythmia of guinea pigs induced by Ouabain; assay: Arrhythmia of guinea pigs induced by Ouabain; type: in vivo; settings: n=8
Method: Chose 40 male guinea pigs, weighing (288.8±38.3) g, randomly divided into six groups, anaesthetized with urethane 1.2 g/kg by abdominal injection. Ten minutes after administered drug or 0.5% CMC-Na, the guinea pigs were injected Ouabain into external jugular vein at 3 μg/min speed, recorded ECG respectively, measured the dose at appearance time of VP, VT, VF and CA, and performed t test.

[2] = system: arrhythmia of rats induced by BaCl2; assay: Arrhythmia of rats induced by BaCl2; type: in vivo, SD rats; settings: BaCl2 4 mg/kg, drug 3 mg/kg into vein, within 60 min, n=10
Method: 50 male SD rats, weighing (236.7±13.7)g, were anaesthetized with 10% chloral hadrate 0.3 g/kg intraperitoneally, recorded ECG with intubating of external jugular vein administering drug. As soon as injected with BaCl2 4 mg/kg, rats usually emerged VP and VT quickly and developed to be the steady and typical double-aspect arrhythmia. After immediately injected with drug or 0.5% CMC-Na into vein, recorded the time of recovering and maintaining sinus rhythm within 60 min as standard, and compared the function between five groups. […] Time of maintaining sinus rhythm was longer and acted more quickly than that of Amiodarone group.

[3] = system: arrhythmia of rats induced by Aconitine; assay: Arrhythmia of rats induced by Aconitine; type: in vivo, SD rats
Method: Male SD rats, weighing (218.3±20.0) g, were anaesthetized with urethane 1.2 g/kg body weight by abdominal injection, continuously monitored by II lead electrocardiogram (ECG) by MS302 Biological Signal Record and Analysis System. After ten minutes of being administered drug or 0.5% CMC-Na through sublingual vein, rats were injected with Aconitine in external jugular vein at 2.5 μg/min speed, recorded the dose at appearance time of ventricular premature beat (VP), ventricular tachycardia (VT), ventricular fibrillation (VF) and cardiac arrest (CA), respectively. And t test was performed. […] The effect of compounds Ca Do E at 0.5 mg/kg dose were remarkably better than that of Prasterone and Arniodarone.

[4] = system: thymus and spleen of mice; assay: Indexes of thymus and spleen of mice injected with cyclophosphamide; type: in vivo, NIH mice; settings: cyclophosphamide 60 mg/kg i.p., drug 10 mg/kg intragastric for 30 days, n=10
Method: Chose 90 healthy NIH mice, weighing (18˜22)g, equal amount of male and female. Every mouse was injected with cyclophos phamide (60 mg/kg, intraperitoneally). […] Administered specimen through intragastric intubation in terms of the dose in Table 8. Continuously administered orally specimen for 30 days, all mice fasted on the 30th day, but were supplied with water. On the 31th day, mice of every group were killed. Weighed their body, thymus and spleen, calculated index of thymus and spleen, compared the difference among each group.

[5] = system: cerebral ischemia-reperfusion injury of mice; assay: Memory step-through test after cerebral ischemia-reperfusion injury; type: in vivo, NIH mice; settings: 4.5 mg/kg intragastric once a day for 10 days, n=10
Method: After weighed, NIH mice were anaesthetized with Penbotarbital 60 mg/kg, then performed operation. Fixed at supine position, the skin in the middle of the deck was dissected about 7 mm. Separated common carotid artery of two sides of neck, surrounded with the thread of No “0”. Common carotid artery of two sides was chipped with artery clip for 2 minutes to induce cerebral ischemia. In the end of ischemia treatment, artery clip was loosed and blood perfusion was restored, rest for five minutes, repeated twice as that. After blocking blood flow of carotid, sutured incision. Recorded trail bloodletting, bloodletting quantity was no more than 10% of total blood quantity. After operation, […] were administered with proper physiological saline through intraperitoneal injection in order to supple capacity of blood. After pseudo operation group was anaesthetized, carotid of two sides was separated but blood flow was not blocked, without being bloodletting too.
In experiment appearance of body temperature lowering and righting reflex disappearing was as positive guide-line of ischemia, discarding those without typical guide line of ischemia. In the procedure of ischemia or after operation, some of animals would be dead. […] According to the dose of Table 7, animals were administered with medicine by intragastric intubation once a day, and continue administered drug for 10 days. After 10 days, memory test was performed.

[6] = system: acute renal failure of mice induced by endotoxin; assay: Acute renal failure model induced by endotoxin; type: in vivo, NIH mice; settings: drug 10 mg/kg i.p., endotoxin 0.06 g/kg, after five hours, n=10; for GSH-Px: mice kidney homogenate; for BUN / Cr: mice serum
Method: After five hours, blood of the mice was collected by removing eyes, assayed Blood Urea Nitrogen (BUN) and Creatinine (Cr) concentration of serum. One kidney of each […] was taken out and made 100 mL/L homogenate, assayed activity of Glutathione Peroxidase (GSH-Px) enzyme.

[7] = system: osteoporosis model of rats induced by Retinoic acid; assay: Osteoporosis model of rats induced by Retinoic acid; type: in vivo, SD rats; settings: Retinoic acid 70 mg/kg, specimen orally 30 days (dose not given), right thighbone, n=8
Description: After continuously administering specimen for 30 days, killed rats and took right thighbone of rat.
Took same part tissue of right thighbone, routinely decalcified, enveloped with olefin, and dyed with HE. Observed with ordinary optics microscope, import all imagines into computer with A/D conversion of pickup camera, via dealing with image analysis software obtained index of guide line as follows: relative bone volume, indicating percentage that bone trabecula accounted for medullary cavity, 1.25×10×4 times; average width of bone trabecula, 1.25×10×10 times; amount of cell per area in bone trabecula, gathering same area image (640×480) of bone trabecula with image analysis software, calculating amount of bone cell in corresponding area, 1.25×10×40 times; Average length of bone cell lacuna, 1.25×10×40; Average width of bone cell lacuna, 1.25×10×40. The above five indexes of static state guide-line were all observed for ten eyeshots, calculating their average value.

[8] = system: myocardium injury model of rats induced by ISO; assay: Myocardium injury (myocardial ischemia) model of rats induced by ISO; type: in vivo, SD rats; settings: drug 0.76 mg/kg, n=8; for Σ ST: rats, ISO s.c.
Method: SD rats were measured ECG by chest leads before experiment, abandoned those of abnormal or arrhythmia at T wave, ST sect. […] They were divided into four groups according to Table 4, eight rats in each group. As dose of Table 4, tested compounds or 0.5% CMC-Na solution with same volume were administered through duodenum for 30 minutes, rats were anaesthetized with aether. After ECG was recorded, Isoproterenol (ISO) was administered by subcutaneous injection from the back, recorded ECG again after 30 minutes. After specimen was intragastricly granted for 24 hours and 48 hours, every group was administered simples again and recorded ECG again in terms of the methods stated above. After 72 hours, bleeding from the ophthalmic venous plexus and separated blood serum through centrifugation. Killed the rats, scissor the tip of the heart to prepare 10% myocardial tissue homogenate with 4° C. physiological saline as standby.
Measured each rat's value of ST before first administering ISO. And after first, second and third subcutaneous injection for 30 minutes, calculated mv mean value of ΣST as guide line of myocardium injury and performed t test.
The changes of MDA LDH and CK in serum were measured with agent kits.
The changes of MDA, LDH and CK in serum and myocardial tissue homogenate were measured with agent kits.

[9] = drug 3 mg/kg 10 min before Ouabain 3 μg/min
[10] = rats, drug 0.5 mg/kg sublingual vein 10 min before Aconitine 2.5 μg/min, n=10
[11] = myocardial tissue homogenate of rats with ISO myocardium injury
[12] = serum of rats with ISO myocardium injury, after 72 hours
[13] = drug 1.5 mg/kg 10 min before Ouabain 3 μg/min

Molecule: CCCCc1oc2ccccc2c1C(=O)c1cc(I)c(OCCN(CC)CC)c(I)c1 [Amiodarone, reference compound]
- Dose of Oua at appearance of CA [1, 9]: 0.2836 ± 0.0439 mg/kg
- Dose of Oua at appearance of VF [1, 9]: 0.2476 ± 0.0461 mg/kg
- Dose of Oua at appearance of VP [1, 9]: 0.1184 ± 0.0335 mg/kg
- Dose of Oua at appearance of VT [1, 9]: 0.175 ± 0.0411 mg/kg
- time of maintaining sinus rhythm [2]: 40.156 ± 5.124 min
- time of storing sinus rhythm [2]: 15.859 ± 5.126 min
- Dose of Aconitine required to induce CA ([3]; {}): 0.176 ± 0.038 mg/kg
- Dose of Aconitine required to induce VF ([3]; {}): 0.1412 ± 0.0282 mg/kg
- Dose of Aconitine required to induce VP ([3]; {}): 0.09 ± 0.0257 mg/kg
- Dose of Aconitine required to induce VT ([3]; {}): 0.1088 ± 0.0254 mg/kg

Molecule: C[C@]12CC[C@H](OC(=O)CCCC(=O)O[C@H]3CC[C@@]4(C)C(=CC[C@@H]5[C@@H]4CC[C@]4(C)C(=O)CC[C@@H]54)C3)CC1=CC[C@@H]1[C@@H]2CC[C@]2(C)C(=O)CC[C@@H]12 [Compound E, glutaric acid-(5-androsten-17-one-3β-ol)-diester]
- Index of spleen [4]: 68.20 ± 9.82 mg/10 g body weight
- Index of thymus [4]: 20.22 ± 2.75 mg/10 g body weight
- Latency of dark cabin, Memory [5]: 45.8 ± 12.9 s
- Latency of dark cabin, Study [5]: 24.1 ± 16.0 s
- Number of error [5]: 3.1 ± 2.7 n
- Dose of Aconitine required to induce CA [3, 10]: 0.1845 ± 0.0271 mg/kg
- Dose of Aconitine required to induce VF [3, 10]: 0.1634 ± 0.0305 mg/kg
- Dose of Aconitine required to induce VP [3, 10]: 0.1082 ± 0.0374 mg/kg
- Dose of Aconitine required to induce VT [3, 10]: 0.1224 ± 0.0378 mg/kg
- GSH-Px [6]: 32.0 ± 14.4 nU · L^−1
- BUN [6]: 315.9 ± 40.8*** 10 mg · L^−1
- Cr [6]: 32.86 ± 8.07*** 10 mg · L^−1
- Amount of cell per area in bone trabecula [7]: 19.35 ± 3.13
- Average width of bone trabecula [7]: 68.66 ± 9.80 μm
- Relative bone volume [7]: 35.87 ± 3.12 %
- Activity of CK [8, 11]: 206.18 ± 43.80 U/L
- Activity of LDH [8, 11]: 160.27 ± 20.36 U/L
- MDA [8, 11]: 89.62 ± 12.37 nmol/g
- Σ ST ([8]; 30 min): 0.53 ± 0.11 mv
- Σ ST ([8]; 24 h): 0.50 ± 0.10 mv
- Σ ST ([8]; 48 h): 0.57 ± 0.04 mv
- Σ ST ([8]; 72 h): 0.51 ± 0.07 mv
- Activity of CK [8, 12]: 275.44 ± 21.81 U/L
- Activity of LDH [8, 12]: 267.35 ± 38.42 U/L
- MDA [8, 12]: 25.54 ± 3.80 nmol/mL

Molecule: C[C@]12CC[C@H](OC(=O)CCCCC(=O)O[C@H]3CC[C@@]4(C)C(=CC[C@@H]5[C@@H]4CC[C@]4(C)C(=O)CC[C@@H]54)C3)CC1=CC[C@@H]1[C@@H]2CC[C@]2(C)C(=O)CC[C@@H]12 [Compound F, adipic acid-(5-androsten-17-one-3β-ol)-diester]
- Dose of Oua at appearance of CA [1, 13]: 0.212 ± 0.0406 mg/kg
- Dose of Oua at appearance of VF [1, 13]: 0.1762 ± 0.0481 mg/kg
- Dose of Oua at appearance of VP [1, 13]: 0.0874 ± 0.0213 mg/kg
- Dose of Oua at appearance of VT [1, 13]: 0.1394 ± 0.0354 mg/kg
- Index of spleen [4]: 75.24 ± 15.48 mg/10 g body weight
- Index of thymus [4]: 16.24 ± 3.31 mg/10 g body weight
- Latency of dark cabin, Memory [5]: 46.5 ± 13.8 s
- Latency of dark cabin, Study [5]: 28.7 ± 11.8 s
- Number of error [5]: 2.9 ± 1.1 n
- GSH-Px [6]: 35.2 ± 12.8 nU · L^−1
- BUN [6]: 377.1 ± 38.1*** 10 mg · L^−1
- Cr [6]: 38.31 ± 9.69*** 10 mg · L^−1
- Amount of cell per area in bone trabecula [7]: 26.31 ± 3.16
- Average width of bone trabecula [7]: 74.67 ± 3.56 μm
- Relative bone volume [7]: 37.14 ± 3.46 %
- Activity of CK [8, 11]: 221.58 ± 45.58 U/L
- Activity of LDH [8, 11]: 157.39 ± 20.69 U/L
- MDA [8, 11]: 105.02 ± 10.84 nmol/g
- Σ ST ([8]; 30 min): 0.47 ± 0.10 mv
- Σ ST ([8]; 24 h): 0.57 ± 0.15 mv
- Σ ST ([8]; 48 h): 0.61 ± 0.05 mv
- Σ ST ([8]; 72 h): 0.53 ± 0.08 mv
- Activity of CK [8, 12]: 252.17 ± 18.41 U/L
- Activity of LDH [8, 12]: 250.40 ± 31.30 U/L
- MDA [8, 12]: 24.16 ± 4.18 nmol/mL

Molecule: glycol-disulphonic acid-(5-androsten-17-one-3β-ol)-diester [Compound G]
- Dose of Oua at appearance of CA [1, 13]: 0.228 ± 0.0398 mg/kg
- Dose of Oua at appearance of VF [1, 13]: 0.1887 ± 0.0378 mg/kg
- Dose of Oua at appearance of VP [1, 13]: 0.1109 ± 0.0203 mg/kg
- Dose of Oua at appearance of VT [1, 13]: 0.1443 ± 0.0338 mg/kg
- Index of spleen [4]: 80.22 ± 17.33 mg/10 g body weight
- Index of thymus [4]: 18.39 ± 3.24 mg/10 g body weight
- Latency of dark cabin, Memory [5]: 47.5 ± 15.7 s
- Latency of dark cabin, Study [5]: 29.5 ± 17.5 s
- Number of error [5]: 3.4 ± 1.6 n
- GSH-Px [6]: 31.8 ± 12.3 nU · L^−1
- BUN [6]: 412.2 ± 40.5*** 10 mg · L^−1
- Cr [6]: 40.42 ± 10.94*** 10 mg · L^−1
- Amount of cell per area in bone trabecula [7]: 25.84 ± 3.31
- Average width of bone trabecula [7]: 69.67 ± 3.15 μm
- Relative bone volume [7]: 34.37 ± 3.27 %
- Activity of CK [8, 11]: 225.60 ± 31.81 U/L
- Activity of LDH [8, 11]: 152.22 ± 25.42 U/L
- MDA [8, 11]: 99.52 ± 13.15 nmol/g
- Σ ST ([8]; 30 min): 0.51 ± 0.13 mv
- Σ ST ([8]; 24 h): 0.50 ± 0.14 mv
- Σ ST ([8]; 48 h): 0.67 ± 0.19 mv
- Σ ST ([8]; 72 h): 0.42 ± 0.07 mv
- Activity of CK [8, 12]: 248.20 ± 20.50 U/L
- Activity of LDH [8, 12]: 254.75 ± 30.81 U/L
- MDA [8, 12]: 20.54 ± 2.11 nmol/mL
